According to patent EP0345931A1 (SCHERING CORPORATION, priority 1988, dated 1989):
Like-named read-outs stand apart in the source and are kept apart here.

Assays:
PAF-acether = settings: BN 52021 2 mg/kg p.o. alone (non-active dose); cited from earlier work
PAF-induced bronchospasm = PAF-induced bronchospasm in guinea pigs; assay type: in vivo; settings: Cavia porcellus
PAF-induced lethality = PAF-induced lethality in mice; assay type: in vivo, Swiss-Webster female CFW mice; settings: for % Lethality: death recorded 1 hour after challenge; for effect on PAF-induced mortality: result in words; for ED50: Mus musculus, read-out: ED₅₀
Experimental: Swiss-Webster female CFW mice (from Charles River), 5-10 per group, were injected through the tail vein with PAF in 0.5 ml of saline containing bovine serum albumin, and death was recorded.

[1] = test system: ovalbumin-induced lethality (anaphylactic death); experiment: Anaphylactic death in ovalbumin-sensitized mice; assay type: in vivo, Swiss-Weber female CFW mice; settings: for protection of sensitized animals from death: antihistamines given individually; for protection of sensitized animals from death / protection against allergic death (anaphylactic shock) / ovalbumin-induced lethality / protecting sensitized animals from death: result in words; for protection against allergic death (anaphylactic shock) / ovalbumin-induced lethality: ovalbumin sensitized mice; for protecting sensitized animals from death: i.p. at doses as high as 50 mg/kg (A) and 20 mg/kg (B)
Experimental: Swiss-Weber female CFW mice (20-30 g) from Charles River were acclimatized for 7-14 days. Animals were sensitized by injecting intraperitoneally 0.5 ml of saline containing 1.6 mg of ovalbumin adsorbed to 100 mg of Al(OH)₃ gel. Ten to 15 days after sensitization, the animals, at least six per group, were injected intraveneously through the tail vein with 1.6 mg of ovalbumin in 0.5 ml of saline. One hundred percent of the sensitized animals died within 10-20 minutes. Injection of ovalbumin into normal mice caused no lethality. […] The compositions (given in dosages listed in the left-hand column of Table II below) were administered intraperitoneally either individually or in indicated combinations 30 minutes before challenge with albumin to sensitized mice. Death was recorded 1 hour after the challenge.

[2] = compound 5 mg/kg i.p. 30 minutes before i.v. PAF (200 µg/kg)
[3] = compound 10 mg/kg i.p. 30 minutes before i.v. PAF (200 µg/kg)

| Structure (SMILES) | ED50 (PAF-induced bronchospasm; iv, read-out: ED₅₀'s (i.v.)) [mg/kg] | effect on PAF-induced mortality (PAF-induced lethality) | protection of sensitized animals from death [1] | protection against allergic death (anaphylactic shock) / ovalbumin-induced lethality [1] | ED50 (PAF-induced lethality) [mg/kg] | % Lethality (PAF-induced lethality; [2]) [%] | % Lethality (PAF-induced lethality; [3]) [%] | protecting sensitized animals from death [1] | further results |
| --- | --- | --- | --- | --- | --- | --- | --- | --- | --- |
| C[C@@H]1C(=O)O[C@H]2[C@@H](O)[C@@]34[C@H]5C[C@@H](C(C)(C)C)[C@]36[C@@H](OC(=O)[C@@H]6O)O[C@@]4(C(=O)O5)[C@@]12O [BN 52021, ginkgolide B] | – | – | – | – | – | – | – | – | change of bronchospasm (PAF-acether): -10% |
| Cc1nnc2n1-c1ccc(Cl)cc1C(c1ccccc1)=NC2 [alprazolam, 8-chloro-1-methyl-6-phenyl-4H-3-triazolo[4,3-a][1,2]-benzodiazepine] | 3 | – | – | – | – | – | – | – | – |
| CN1CCC(=C2c3ccccc3CC(=O)c3sccc32)CC1 [D, ketotifen] | – | Neither chlorpheniramine, clemastine nor ketotifen affected PAF-induced mortality | significant protection | only partial protection | – | – | – | – | % Lethality (PAF-induced lethality; compound 1.4 mg/kg i.p. 30 minutes before i.v. PAF (200 µg/kg)): 100%; % Survival ([1]; D 0.1 mg/kg i.p. 30 minutes before ovalbumin challenge, pooled data): 40% |
| Cc1nnc2n1-c1sc(CCC(=O)N3CCOCC3)cc1C(c1ccccc1Cl)=NC2 [B, 4-(2-chlorophenyl)-9-methyl-6H-thieno[3,2-f][1,2,4]triazolo[4,3-a][1,4]diazepine-2-propionic acid morpholide] | – | – | – | – | 1.5 | 16 | 0 | totally ineffective | ED50 (PAF-induced bronchospasm; po, PAF-induced bronchospasm, read-out: ED₅₀ (p.o.)): 0.1 mg/kg; % Lethality (PAF-induced lethality; compound 1 mg/kg i.p. 30 minutes before i.v. PAF (200 µg/kg)): 84%; % Lethality (PAF-induced lethality; compound 2 mg/kg i.p. 30 minutes before i.v. PAF (200 µg/kg)): 20%; % Survival ([1]; B 5 mg/kg i.p. 30 minutes before ovalbumin challenge, death recorded 1 hour after, pooled data from five experiments): 0% |
| CN1CCC[C@@H]1CCO[C@](C)(c1ccccc1)c1ccc(Cl)cc1 [E, clemastine] | – | Neither chlorpheniramine, clemastine nor ketotifen affected PAF-induced mortality | significant protection | only partial protection | – | – | – | – | % Survival ([1]; E 0.2 mg/kg i.p. 30 minutes before ovalbumin challenge, pooled data): 45% |
| COc1cc([C@H]2CC[C@H](c3cc(OC)c(OC)c(OC)c3)O2)cc(OC)c1OC (relative stereo) [A, trans-2,5-bis(3,4,5-trimethoxyphenyl)tetrahydrofuran] | 0.4 | – | – | – | 20 | 84 | 72 | totally ineffective | % Lethality (PAF-induced lethality; compound 25 mg/kg i.p. 30 minutes before i.v. PAF (200 µg/kg)): 25%; % Lethality (PAF-induced lethality; compound 50 mg/kg i.p. 30 minutes before i.v. PAF (200 µg/kg)): 16%; % Survival ([1]; A 50 mg/kg i.p. 30 minutes before ovalbumin challenge, death recorded 1 hour after, pooled data from five experiments): 0% |
